From article PMC3681751, “Identification of a Novel Antimicrobial Peptide from Human Hepatitis B Virus Core Protein Arginine-Rich Domain (ARD)” (PLoS Pathogens, 2013)
In brackets after ≈: the same amount, converted by molar mass. Read-outs that look alike come from different tables or passages of the source. Residues, ends and D or L forms follow the SMILES beside them.

Legend:
[1] = tested on: Staphylococcus aureus ATCC 19636; assay: Sepsis survival model, i.p. inoculation; format: in vivo; conditions: 4×10^6 CFU/mouse i.p., n = 10
Experimental: Three-week old male ICR mice (19 to 21 g) were purchased from BioLASCO (Taiwan). Overnight culture of bacteria in BHI broth (Difco) was subcultured in fresh BHI broth to log phase. Inoculums were diluted in BHI broth to indicated densities. To test the acute toxicity of ARD peptide in vivo, ICR male mice were inoculated intraperitoneally (i.p.) with 10 and 20 mg/kg HBc147-183 in PBS, respectively. Each group contained 5 mice. After peptide injection, the number of dead mice was recorded daily for 7 days post-injection. To test the antimicrobial activity of the ARD peptide in vivo, all mice were inoculated i.p. with Staphylococcus aureus ATCC 19636 (4×10^6 CFU/mouse) in BHI broth. Peptide HBc147-183 (10 mg/kg) was administered i.p. at 1, 1.5 and 2 hours post-inoculation. PBS (10 ml/kg) control was administered at 1 hour post-inoculation. […] Mortality was monitored daily for 7 days post-inoculation. […] The mice were anesthetized first before transferring to the IVIS imaging system (IVIS spectrum), and luminescence was measured with an exposure time of 1 minutes or less. The image system measured the number of photons and translated the data to false color images that depicted the region of strong luminescence with red, moderate luminescence with yellow and green, and mild luminescence with blue. […] Total flux (RLU) of region of interest (ROI) was quantified by the IVIS imaging software.

S. aureus (ATCC 29213) = format: cell-based, Staphylococcus aureus
Outline: (§1)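 Mid-log bacteria at 10^6 CFU/ml in 10 mM sodium phosphate, 50 mM NaCl, pH 7.2, exposed to serially diluted HBc ARD peptides for 3 h at 37 °C without shaking. Mixtures plated on Mueller-Hinton agar overnight to give minimal bactericidal concentration; triplicate tests.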

S. aureus (ATCC 19636) = format: cell-based, Staphylococcus aureus
Outline: as §1

S. aureus (ATCC 25923) = format: cell-based, Staphylococcus aureus
Outline: as §1

[2] = tested on: A. baumannii ATCC19606 CR; format: cell-based, Acinetobacter baumannii; conditions: Induced Colistin resistant strain; colistin susceptibility by broth-dilution (CLSI)
From the text: (§2) Clinical isolates of Pseudomonas aeruginosa (NHRI-01, NHRI-02 and NHRI-04) were obtained through the program of Taiwan Surveillance of Antimicrobial Resistance (TSAR), National Health Research Institutes (NHRI), Taiwan. Acinetobacter baumannii (ATCC 17989, ATCC 17978 CR, ATCC19606, ATCC 19606 CR, TCGH 45530 and TCGH 46709) were obtained from Tzu-Chi Buddhist General Hospital (TCGH) in Taiwan, and clinical isolates (TCGH 45530 and TCGH 46709) were identified using the Vitek system (Biomerieux Vitek, Inc., Hazelwood, MO, USA). A. baumannii is defined as multidrug-resistant, when the organism is resistant to piperacillin, piperacillin-tazobactam, ampicillin/sulbactam, imipenem, ceftazidime, gentamicin, amikacin, tetracycline, chloramphenicol, ciprofloxacin, and cotrimoxazole. Susceptibility to colistin was determined using the broth-dilution method, in accordance with the guidelines of the Clinical and Laboratory Standards Institute (CLSI).
(§3) All peptides were purchased from Yao-Hong Biotechnology Inc. (Taipei, Taiwan). Vendors provided data of peptide characterizations, including HPLC and Mass (data not shown). Antimicrobial activity was determined as described with some modifications as detailed below. Bacteria were grown overnight in Mueller–Hinton broth (Difco) at 37°C, and during the mid-logarithmic phase, bacteria were diluted to 10^6 CFU (colony formation unit)/ml in phosphate buffer (10 mM sodium phosphate and 50 mM sodium chloride, pH 7.2). Peptides were serially diluted in the same buffer. Fifty microliter (µl) of bacteria was mixed with fifty µl of peptides at varying concentrations followed by incubation at 37°C for 3 hours without shaking. At the end of incubation, bacteria were placed on Mueller-Hinton broth agar plates, and allowed growth at 37°C overnight for measurement of minimal bactericidal concentration (MBC). […] All peptides were tested in triplicate.

A. baumannii ATCC19606 = format: cell-based, Acinetobacter baumannii; conditions: ATCC19606, 3 h
From the text: as §2, §3

[3] = tested on: A. baumannii ATCC17978 CR; format: cell-based, Acinetobacter baumannii; conditions: colistin-resistant A. baumannii of Table 2
From the text: as §2, §3

A. baumannii ATCC17978 = format: cell-based, Acinetobacter baumannii; conditions: text summary over the A. baumannii strains of Table 2
From the text: as §2, §3

A. baumannii TCGH46709 = format: cell-based, Acinetobacter baumannii; conditions: TCGH46709, 3 h
From the text: as §2, §3

A. baumannii TCGH45530 = format: cell-based, Acinetobacter baumannii; conditions: TCGH45530, 3 h
From the text: as §2, §3

[4] = methicillin-resistant strain, 3 h at 37°C in phosphate buffer pH 7.2, triplicate

CC(C)[C@H](NC(=O)[C@@H](NC(=O)[C@@H](N)[C@@H](C)O)C(C)C)C(=O)N[C@@H](CCCNC(=N)N)C(=O)N[C@@H](CCCNC(=N)N)C(=O)N[C@@H](CCCNC(=N)N)C(=O)NCC(=O)N[C@@H](CCCNC(=N)N)C(=O)N[C@@H](CO)C(=O)N1CCC[C@H]1C(=O)N[C@@H](CCCNC(=N)N)C(=O)N[C@@H](CCCNC(=N)N)C(=O)N[C@@H](CCCNC(=N)N)C(=O)N[C@H](C(=O)N1CCC[C@H]1C(=O)N[C@@H](CO)C(=O)N1CCC[C@H]1C(=O)N[C@@H](CCCNC(=N)N)C(=O)N[C@@H](CCCNC(=N)N)C(=O)N[C@@H](CCCNC(=N)N)C(=O)N[C@@H](CCCNC(=N)N)C(=O)N[C@@H](CO)C(=O)N[C@@H](CCC(N)=O)C(=O)N[C@@H](CO)C(=O)N1CCC[C@H]1C(=O)N[C@@H](CCCNC(=N)N)C(=O)N[C@@H](CCCNC(=N)N)C(=O)N[C@@H](CCCNC(=N)N)C(=O)N[C@@H](CCCNC(=N)N)C(=O)N[C@@H](CO)C(=O)N[C@@H](CCC(N)=O)C(=O)N[C@@H](CO)C(=O)N[C@@H](CCCNC(=N)N)C(=O)N[C@@H](CCC(=O)O)C(=O)N[C@@H](CO)C(=O)N[C@@H](CCC(N)=O)C(=O)N[C@@H](CS)C(=O)O)[C@@H](C)O [HBc147-183] (H-TVVRRRGRSPRRRTPSPRRRRSQSPRRRRSQSRESQC-OH; N-terminus and C-terminus assumed)
Survival rate after 7 days ([1]; 10 mg/kg i.p. at 1.5 h post-inoculation): 70%
Survival rate after 7 days ([1]; 10 mg/kg i.p. at 2 h post-inoculation (peak of bacterial load in blood)): 40%
Antimicrobial activity, MBC (S. aureus (ATCC 29213); ATCC 29213, 3 h, pH 7.2): 4 µM
Antimicrobial activity, MBC (S. aureus (ATCC 29213); [4]): 18.36 µg/mL
MBC against S. aureus (S. aureus (ATCC 19636); ATCC 19636, 3 h): around 4 µM
Antimicrobial activity, MBC (S. aureus (ATCC 19636); ATCC 19636, 3 h, pH 7.2): 4 µM
Antimicrobial activity, MBC (S. aureus (ATCC 19636); [4]): 18.36 µg/mL
Antimicrobial activity, MBC (S. aureus (ATCC 25923); ATCC 25923, 3 h, pH 7.2): 4 µM
Antimicrobial activity, MBC (S. aureus (ATCC 25923); [4]): 18.36 µg/mL
MBC [2]: 2.30 µg/mL (≈ 0.501 µM)
MBC (A. baumannii ATCC19606): 2.30 µg/mL (≈ 0.501 µM)
MBC against all tested colistin-resistant A. baumannii [3]: 0.5 to 1 µM
MBC against colistin-sensitive and colistin-resistant A. baumannii (A. baumannii ATCC17978): 0.5 to 1 µM
MBC (A. baumannii TCGH46709): 4.59 µg/mL (≈ 1 µM)
MBC (A. baumannii TCGH45530): 2.30 µg/mL (≈ 0.501 µM)
